Test results from patent publication US9061352B2, “Dry powder formulations and methods for treating pulmonary diseases” (priority 2010, dated 2015).

How the values were obtained:
Format in all cases: physicochemical
[1] = Heat of solution in HBSS buffer; settings: for ΔH (kJ/mol), Average / ΔH (kcal/mol), Average / heat of solution ΔH: HBSS buffer; for ΔH (kJ/mol), Average / ΔH (kcal/mol), Average: per mol Ca for all powders except leucine (mol Leu); for ΔH (kJ/mol), Average / ΔH (kcal/mol), Average / Q (cal), Average / ΔT (deg. C.), Average: experiment #1; for Q (cal), Average / ΔT (deg. C.), Average: dissolution in HBSS buffer
[2] = Fine particle fraction by two-stage collapsed Andersen Cascade Impactor (ACI-2); settings: spray dried from 70% ethanol, 50 g/L
[3] = Volume median diameter (x50) and dispersibility ratios by HELOS/RODOS laser diffraction
Experimental: Volume median diameter (×50 or Dv50), which may also be referred to as volume median geometric diameter (VMGD), was determined using a laser diffraction technique. The equipment consisted of a HELOS diffractometer and a RODOS dry powder disperser (Sympatec, Inc., Princeton, N.J.). The RODOS disperser applies a shear force to a sample of particles, controlled by the regulator pressure (typically set at 1.0 bar) of the incoming compressed dry air. The pressure settings may be varied to vary the amount of energy used to disperse the powder. For example, the regulator pressure may be varied from 0.2 bar to 4.0 bar; and the orifice ring pressure may be varied from 5.00 mbar to 115.00 mbar. Powder sample is dispensed from a microspatula into the RODOS funnel. The dispersed particles travel through a laser beam where the resulting diffracted light pattern produced is collected, typically using an R1 lens, by a series of detectors. The ensemble diffraction pattern is then translated into a volume-based particle size distribution using the Fraunhofer diffraction model, on the basis that smaller particles diffract light at larger angles. Using this method geometric standard deviation (GSD) for the volume mean geometric diameter was also determined.

[4] = Emitted geometric particle size from dry powder inhaler by Spraytec (Dv50, GSD, FPF<5 μm); settings: for average Dv50: 9.2 Joules; for Dv50: measured lower energies
Text: (§1) Volume median diameter can also be measured using a method where the powder is emitted from a dry powder inhaler device. The equipment consisted of a Spraytec laser diffraction particle size system (Malvern, Worcestershire, UK), “Spraytec”. Powder formulations were filled into size 3 HPMC capsules (Capsugel V-Caps) by hand with the fill weight measured gravimetrically using an analytical balance (Mettler Tolerdo XS205). A capsule based passive dry powder inhalers (RS-01 Model 7, High resistance Plastiape S.p.A.) was used which had specific resistance of 0.036 kPa^1/2 LPM^−1. Flow rate and inhaled volume were set using a timer controlled solenoid valve with flow control valve (TPK2000, Copley Scientific). Capsules were placed in the dry powder inhaler, punctured and the inhaler sealed to the inlet of the laser diffraction particle sizer. The steady air flow rate through the system was initiated using the TPK2000 and the particle size distribution was measured via the Spraytec at 1 kHz for at least 2 seconds and up to the total inhalation duration. Particle size distribution parameters calculated included the volume median diameter (Dv50) and the geometric standard deviation (GSD) and the fine particle fraction (FPF) of particles less than 5 micrometers in diameter. At the completion of the inhalation duration, the dry powder inhaler was opened, the capsule removed and re-weighed to calculate the mass of powder that had been emitted from the capsule during the inhalation duration (capsule emitted powder mass or CEPM).
The previous description of the use of the Spraytec was for what is described as its “closed bench configuration”. Alternatively, the Spraytec can be used in its “open bench configuration”. In the open bench configuration, capsules were placed in the dry powder inhaler, punctured and the inhaler sealed inside a cylinder. The cylinder was connected to a positive pressure air source with steady air flow through the system again measured with a mass flow meter and its duration controlled with a timer controlled solenoid valve. The exit of the dry powder inhaler was exposed to room pressure and the resulting aerosol jet passed through the laser of the diffraction particle sizer (Spraytec) in its open bench configuration before being captured by a vacuum extractor. The steady air flow rate through the system was initiated using the solenoid valve and the particle size distribution was measured via the Spraytec at 1 kHz for the duration of the single inhalation maneuver with a minimum of 2 seconds, as in the closed bench configuration. When data are reported in the examples as being measured by the Spraytec, they are from the closed bench configuration unless otherwise noted.
The volume median diameter (Dv50) of the powder after it emitted from a dry powder inhaler, which may also be referred to as volume median geometric diameter (VMGD), was determined using a laser diffraction technique via the Spraytec diffractometer (Malvern, Inc., Worcestershire, UK). Powder was filled into size 3 capsules (V-Caps, Capsugel) and placed in a capsule based dry powder inhaler (RS01 Model 7 High resistance, Plastiape, Italy), or DPI, which was connected with an airtight seal to the inhaler adapter of the Spraytec. A steady airflow rate was drawn through the DPI typically at 60 L/min for a set duration, typically of 2 seconds controlled by a timer controlled solenoid (TPK2000, Copley, Scientific, UK). Alternatively, the airflow rate drawn through the DPI was sometimes run at 15 L/min, 20 L/min, or 30 L/min. The outlet aerosol then passed perpendicularly through the laser beam as an internal flow. The resulting geometric particle size distribution of the aerosol was calculated from the software based on the measured scatter pattern on the photodetectors with samples typically taken at 1000 Hz for the duration of the inhalation. The Dv50, GSD, FPF<5.0 μm measured were then averaged over the duration of the inhalation. […]

[5] = Capsule emitted powder mass (CEPM) from dry powder inhaler; settings: for average CEPM, % of capsule fill weight: 9.2 Joules (60 L/min for 2 L), high resistance RS-01
Text: as §1
A measure of the emission properties of the powders was determined by using the information obtained from the Andersen Cascade Impactor tests. The filled capsule weight was recorded at the beginning of the run and the final capsule weight was recorded after the completion of the run. The difference in weight represented the amount of powder emitted from the capsule (CEPM or capsule emitted powder mass). The emitted dose was calculated by dividing the amount of powder emitted from the capsule by the total initial particle mass in the capsule. While the standard CEPM was measured at 60 L/min, it was also measured at 15 L/min, 20 L/min, or 30 L/min.
Powder formulations were filled into size 3 HPMC capsules (Capsugel V-Caps) by hand with the fill weight measured gravimetrically using an analytical balance (Mettler Tolerdo XS205). […] Two capsule based passive dry powder inhalers (RS-01 Model 7, Low resistance Plastiape S.p.A. and RS-01 Model 7, High resistance Plastiape S.p.A.) were used which had specific resistances of 0.020 and 0.036 kPa1/2/LPM which span the typical range of dry powder inhaler resistance. Flow rate and inhaled volume were set using a timer controlled solenoid valve with flow control valve (TPK2000, Copley Scientific). Capsules were placed in the appropriate dry powder inhaler, punctured and the inhaler sealed to the inlet of the laser diffraction particle sizer (Spraytec, Malvern). The steady air flow rate through the system was initiated using the TPK2000 and the particle size distribution was measured via the Spraytec at 1 kHz for the durations at least 2 seconds and up to the total inhalation duration. Particle size distribution parameters calculated included the volume median diameter (Dv50) and the geometric standard deviation (GSD) and the fine particle fraction (FPF) of particles less than 5 micrometers in diameter. At the completion of the inhalation duration, the dry powder inhaler was opened, the capsule removed and re-weighed to calculate the mass of powder that had been emitted from the capsule during the inhalation duration. At each testing condition, 5 replicate capsules were measured and the results of Dv50, FPF and capsule emitted powder mass (CEPM) were averaged. […]

[6] = RS.01.HR, fill 25 mg, 15 LPM, 4 s, 0.29 J
[7] = RS.01.HR, fill 25 mg, 20 LPM, 3 s, 0.51 J
[8] = RS.01.HR, fill 25 mg, 30 LPM, 2 s, 1.15 J
[9] = RS.01.HR, fill 25 mg, 60 LPM, 2 s, 9.18 J
[10] = RS.01.HR, fill 40 mg, 15 LPM, 4 s, 0.29 J
[11] = RS.01.HR, fill 40 mg, 20 LPM, 3 s, 0.51 J
[12] = RS.01.HR, fill 40 mg, 30 LPM, 2 s, 1.15 J
[13] = RS.01.HR, fill 40 mg, 60 LPM, 2 s, 9.18 J
[14] = RS.01.LR, fill 25 mg, 60 LPM, 2 s, 2.85 J
[15] = RS.01.LR, fill 40 mg, 60 LPM, 2 s, 2.85 J
[16] = all measured energies below 9.2 Joules, 25 and 40 mg fill

Compound: O.O.[Ca+2].[Cl-].[Cl-] [CaCl2•2H2O]
- ΔH (kJ/mol), Average [1]: -50.5 kJ/mol
- ΔH (kcal/mol), Average [1]: -12.1 kcal/mol
- Q (cal), Average [1]: 2.93 cal
- ΔT (deg. C.), Average [1]: 0.024 deg. C.

Compound: CC(C)C[C@H](N)C(=O)O [Leucine]
- ΔH (kJ/mol), Average [1]: -6 kJ/mol
- ΔH (kcal/mol), Average [1]: -1.5 kcal/mol
- Q (cal), Average [1]: 0.37 cal
- ΔT (deg. C.), Average [1]: 0.003 deg. C.

Compound: [Cl-].[Cl-].[Mg+2] [Pure magnesium chloride, magnesium chloride]
- fine particle fraction less than 5.6 microns [2]: 19%
- median volume particle size ([3]; spray dried from 70% ethanol, 50 g/L): 4 microns
- median particle size ([3]; spray dried from D.I. water, 20 g/L): 21 microns

Compound: O.O.[Ca+2].[Cl-].[Cl-] [raw calcium chloride dihydrate, calcium chloride dihydrate]
- heat of solution ΔH ([1]; first experiment): -12.1 kcal/mol
- heat of solution ΔH ([1]; second experiment): -8.4 kcal/mol

Compound: albuterol sulfate [Micronized Albuterol]
- average Dv50 ([4]; 25 mg fill): 1.8 μm
- Dv50 ([4]; 25 mg fill): 3.9 μm
- average Dv50 ([4]; 40 mg fill): 1.6 μm
- Dv50 ([4]; 40 mg fill): 3.1 μm
- Mean Dv(50) (μm) [4, 6]: 16.76 μm
- Mean FPF, % <5 μm [4, 6]: 13.00%
- Mean Dv(50) (μm) [4, 7]: 8.40 μm
- Mean FPF, % <5 μm [4, 7]: 32.10%
- Mean Dv(50) (μm) [4, 8]: 3.86 μm
- Mean FPF, % <5 μm [4, 8]: 59.44%
- Mean Dv(50) (μm) [4, 9]: 1.77 μm
- Mean FPF, % <5 μm [4, 9]: 81.65%
- Mean Dv(50) (μm) [4, 10]: 17.63 μm
- Mean FPF, % <5 μm [4, 10]: 10.73%
- Mean Dv(50) (μm) [4, 11]: 6.34 μm
- Mean FPF, % <5 μm [4, 11]: 42.24%
- Mean Dv(50) (μm) [4, 12]: 3.13 μm
- Mean FPF, % <5 μm [4, 12]: 67.18%
- Mean Dv(50) (μm) [4, 13]: 1.60 μm
- Mean FPF, % <5 μm [4, 13]: 84.30%
- Mean Dv(50) (μm) [4, 14]: 2.57 μm
- Mean FPF, % <5 μm [4, 14]: 75.01%
- Mean Dv(50) (μm) [4, 15]: 2.62 μm
- Mean FPF, % <5 μm [4, 15]: 73.98%
- average CEPM, % of capsule fill weight ([5]; 25 mg fill): 93%
- average CEPM, % of capsule fill weight ([5]; 40 mg fill): 84%
- Mean CEPM [5, 6]: 3.12 mg
- Mean CEPM [5, 7]: 5.00 mg
- Mean CEPM [5, 8]: 7.08 mg
- Mean CEPM [5, 9]: 23.18 mg
- Mean CEPM [5, 10]: 2.43 mg
- Mean CEPM [5, 11]: 4.97 mg
- Mean CEPM [5, 12]: 8.55 mg
- Mean CEPM [5, 13]: 33.40 mg
- Mean CEPM [5, 14]: 15.28 mg
- Mean CEPM [5, 15]: 18.88 mg
- CEPM [5, 16]: below 10 mg
- CEPM, % of capsule fill weight [5, 16]: < 30%
